Measured values as given in ChEMBL document CHEMBL1201862, “PubChem BioAssay data set” (2004).
Activity calls are given as the source filed them.

How the values were obtained:
[1] = Luminescence Cell-Based Dose Retest to Confirm Inhibitors of Cancer Stem Cells. [Related pubchem assays (depositor defined):AID2717, AID2721]; type: functional; conditions: Homo sapiens
[2] = viability loss of HMLE_sh_eGFP cells – cell-based, luminescence, counter-screen for HMLE_sh_ECad selective toxicity project, dose response (AID 463074); type: functional, Homo sapiens;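 further: HMLE human mammary epithelial cells expressing control shRNA against eGFP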
BJ [3] = experiment: BJ-TERT fibroblast viability loss – cell-based, RAS-independent, luminescence, dose response (AID 1933); type: functional; conditions: Homo sapiens
BJ [4] = experiment: BJ-TERT-LT-ST fibroblast viability loss – cell-based, RAS-independent, luminescence, dose response (AID 1935); type: functional; conditions: Homo sapiens;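 further: BJ fibroblasts immortalized with TERT plus LT and ST oncogenes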
cells [5] = type: functional, cell-based
[6] = non-specific 3'UTR reporter inhibition in Clone20-Shn3RL – cell-based, Renilla luciferase, cherry-picked, counter-screen for Shn3 inhibitor project, dose response (AID 624133); type: functional
cells [7] = type: functional, cell-based; remark: listed apart in the source
HEK293 [8] = experiment: HEK293T cell viability loss, resazurin readout – resazurin fluorescence, cytotoxicity control for NF-kB activator project, SAR follow-up (AID 493251); type: functional, cell-based; conditions: Homo sapiens
[9] = reduction of Shn3 3'UTR-driven luciferase in osteoblasts – cell-based, Clone20 osteoblasts, firefly luciferase, cherry-picked, dose response (AID 624132); type: functional;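 further: firefly luciferase luminescence from reporter carrying the Shn3 3'UTR in osteoblasts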
[10] = target: Heat shock protein HSP 90-alpha (Homo sapiens, UniProt P07900); type: functional, organism-based
Jurkat = experiment: SAR Analysis of small molecule inhibitors of T-cell specific antigen receptor-induced NF-kB activation in a Jurkat cell line using a luminescence assay - Set 2. [Related pubchem assays (depositor defined):AID435003, AID435012, AID465]; type: functional, cell-based; conditions: Homo sapiens
[11] = DRD fibroblast viability loss – cell-based, non-viral oncogenic, luminescence, dose response (AID 1934); type: functional; conditions: Homo sapiens
[12] = loss of viability in HepG2 cells – cell-based, CellTiter-Glo, cherry-picked, cytotoxicity control for Shn3 inhibitor project, dose response (AID 624134); type: functional
BJ [13] = experiment: growth inhibition of engineered Ras-driven BJ cells – cell-based, alamar blue fluorescence, cherrypicked samples, dose response (AID 2631); type: functional; conditions: Homo sapiens;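 further: confirmatory dose-response assay in RAS-dependent BJ fibroblasts engineered with TERT, LT and ST, with cytotoxicity read by fluorescence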
HEK293 [14] = experiment: SAR Analysis of small molecule inhibitors of T-cell specific antigen receptor-induced NF-kB activation in a HEK-293T cell line using a luminescence assay - Set 2. [Related pubchem assays (depositor defined):AID435003, AID435012, AID489026]; type: functional, cell-based; conditions: Homo sapiens
BJ [15] = experiment: cells; type: functional, cell-based; conditions: Homo sapiens
HEK293 [16] = experiment: EBV LMP1 TES2 canonical NF-kB signalling blockers – cell-based, HEK293, luciferase, cherry-pick, dose response (AID 588343); type: functional; conditions: Homo sapiens
[17] = target: Latent membrane protein 1 (Human herpesvirus 4 (strain B95-8), UniProt P03230); experiment: LMP1 TES1 pathway selectivity over dsRED control – imaging, HEK293T, dual-color eGFP/dsRED, cherry-picks, selectivity assay for LMP1 NF-kB inhibitor project, dose response (AID 588398); type: functional, cell-based
[18] = target: FAD-linked sulfhydryl oxidase ALR (Homo sapiens, UniProt P55789); experiment: ALR-catalysed DTT oxidation blockers – biochemical, H2O2 detection, luminescence, cherry-pick, dose response (AID 493248)
Interleukin-8 [19] = target: T1, Interleukin-8 (Homo sapiens, UniProt P10145); experiment: Dose Response confirmation of uHTS small molecule hits for cystic fibrosis induced NFkb Inhibitors in a TNFa-induced IL8 counterscreen.; type: functional; conditions: read-out: IC50_Mean
Interleukin-8 [20] = target: T1, Interleukin-8; experiment: Dose Response confirmation of uHTS small molecule hits for cystic fibrosis induced NFkb Inhibitors in a PAF-induced IL8 counterscreen.; type: functional; conditions: read-out: IC50_Mean
[21] = NIH3T3 cell viability loss – ATP luminescence, mouse fibroblasts, counter-screen, dose response (AID 2010); type: functional, cell-based;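 further: cells exposed to compound for about 90 hours before reading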
[22] = target: SWI/SNF-related matrix-associated actin-dependent regulator of chromatin subfamily A member 2 (Homo sapiens, UniProt P51531); experiment: Luminescence-based cell-based high throughput dose response assay to identify activators of the function of SWI/SNF related, matrix associated, actin dependent regulator of chromatin, subfamily a, member 2 (SMARCA2, BRM).; type: functional
[23] = Trypanosoma cruzi growth suppression in host cells – NIH3T3 host cells, beta-gal luminescence, confirmation (AID 2044); type: functional, cell-based;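 further: intracellular parasites grown in NIH/3T3 mouse fibroblasts as host cells; luminescent beta-galactosidase reporter signal from transgenic T. cruzi replicating inside host cells; inhibitors lower the luminescence signal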
[24] = Counterscreen for activators of the function of SWI/SNF related, matrix associated, actin dependent regulator of chromatin, subfamily a, member 2 (SMARCA2, BRM): Luminescence-based cell-based high throughput dose response assay to identify non-selective compounds using the VP16 reporter assay.; type: functional
[25] = target: DNA repair and recombination protein RAD54-like (Homo sapiens, UniProt Q92698); experiment: RAD54 Holliday junction migration blockers – biochemical, fluorescence, cherry-picked samples, dose series, confirmation (AID 651657); type: functional
[26] = fluconazole-exposed Candida albicans growth modulators – fluorescence, retest, confirmation (AID 2467); type: functional, cell-based
[27] = target: T2, Heat shock factor protein 1 (Mus musculus, UniProt P38532); experiment: decrease of HSF1-responsive luciferase luminescence – cell-based, NIH3T3, dose retest, confirmation (AID 2382); type: functional;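 further: NIH3T3 fibroblasts with HSF1-driven luciferase reporter stressed by proteasome inhibitor MG132; luminescence from HSF1-driven luciferase expression after 8 hours of MG132 stress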
T2 sequence (P38532 whole entry): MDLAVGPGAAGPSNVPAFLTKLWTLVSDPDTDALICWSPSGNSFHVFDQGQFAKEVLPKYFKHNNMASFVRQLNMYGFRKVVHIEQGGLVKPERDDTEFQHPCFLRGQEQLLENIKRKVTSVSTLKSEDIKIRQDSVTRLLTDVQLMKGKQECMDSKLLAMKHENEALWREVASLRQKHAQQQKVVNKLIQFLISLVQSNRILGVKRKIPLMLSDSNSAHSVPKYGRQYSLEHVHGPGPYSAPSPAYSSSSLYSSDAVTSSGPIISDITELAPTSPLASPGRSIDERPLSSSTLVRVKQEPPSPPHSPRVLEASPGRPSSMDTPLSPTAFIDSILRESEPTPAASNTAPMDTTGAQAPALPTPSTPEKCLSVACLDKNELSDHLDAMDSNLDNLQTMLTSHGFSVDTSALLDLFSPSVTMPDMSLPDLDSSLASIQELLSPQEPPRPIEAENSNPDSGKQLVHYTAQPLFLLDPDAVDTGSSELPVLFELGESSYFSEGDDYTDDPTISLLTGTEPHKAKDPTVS

[28] = NIH-3T3 fibroblast cytotoxicity, dose response, cytotoxicity control, cell-based, fluorescence, Alamar Blue, secondary assay (AID 2327); type: functional;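 further: NIH-3T3 mouse fibroblasts cultured with fluconazole at 8 µg/mL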

T1 sequence (P10145 whole entry): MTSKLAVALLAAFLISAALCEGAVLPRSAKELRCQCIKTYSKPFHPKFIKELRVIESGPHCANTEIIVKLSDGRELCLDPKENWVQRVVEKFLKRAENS
Chain of DNA repair and recombination protein RAD54-like (Q92698 whole entry): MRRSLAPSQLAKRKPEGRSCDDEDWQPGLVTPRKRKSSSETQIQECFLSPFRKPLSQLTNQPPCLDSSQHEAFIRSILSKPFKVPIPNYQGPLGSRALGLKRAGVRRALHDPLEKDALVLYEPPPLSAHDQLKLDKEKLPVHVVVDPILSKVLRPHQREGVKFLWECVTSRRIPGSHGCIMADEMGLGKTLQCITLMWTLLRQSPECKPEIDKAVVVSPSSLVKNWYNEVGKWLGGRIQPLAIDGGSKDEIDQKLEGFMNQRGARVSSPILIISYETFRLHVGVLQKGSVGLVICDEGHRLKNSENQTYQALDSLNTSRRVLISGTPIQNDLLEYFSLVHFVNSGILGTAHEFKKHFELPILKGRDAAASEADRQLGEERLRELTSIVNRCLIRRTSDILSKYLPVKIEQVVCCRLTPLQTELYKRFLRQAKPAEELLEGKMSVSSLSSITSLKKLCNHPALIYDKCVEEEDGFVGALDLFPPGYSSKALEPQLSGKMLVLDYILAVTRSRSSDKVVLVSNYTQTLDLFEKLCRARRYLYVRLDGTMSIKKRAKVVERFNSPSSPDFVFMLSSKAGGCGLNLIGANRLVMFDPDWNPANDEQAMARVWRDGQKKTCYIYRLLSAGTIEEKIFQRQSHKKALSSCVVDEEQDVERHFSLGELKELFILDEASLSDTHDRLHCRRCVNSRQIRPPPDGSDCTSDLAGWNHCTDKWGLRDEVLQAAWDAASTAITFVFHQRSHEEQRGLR
Chain of FAD-linked sulfhydryl oxidase ALR (P55789 whole entry): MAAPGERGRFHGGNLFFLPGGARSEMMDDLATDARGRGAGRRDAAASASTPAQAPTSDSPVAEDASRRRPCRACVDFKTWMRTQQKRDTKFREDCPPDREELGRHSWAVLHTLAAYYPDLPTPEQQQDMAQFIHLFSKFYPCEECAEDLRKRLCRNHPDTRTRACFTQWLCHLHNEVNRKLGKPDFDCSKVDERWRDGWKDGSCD
Chain of Latent membrane protein 1 (P03230 whole entry): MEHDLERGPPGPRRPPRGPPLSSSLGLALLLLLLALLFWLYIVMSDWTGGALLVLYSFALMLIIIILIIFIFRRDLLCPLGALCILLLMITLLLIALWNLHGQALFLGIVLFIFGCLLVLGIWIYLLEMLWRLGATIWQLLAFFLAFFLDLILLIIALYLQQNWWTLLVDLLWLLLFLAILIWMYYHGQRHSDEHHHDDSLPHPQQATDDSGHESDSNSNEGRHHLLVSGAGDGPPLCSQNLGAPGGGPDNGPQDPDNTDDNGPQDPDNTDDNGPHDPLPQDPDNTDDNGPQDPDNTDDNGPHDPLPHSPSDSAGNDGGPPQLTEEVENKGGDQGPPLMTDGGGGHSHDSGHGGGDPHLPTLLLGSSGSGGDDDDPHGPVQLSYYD
Chain of SWI/SNF-related matrix-associated actin-dependent regulator of chromatin subfamily A member 2 (P51531 whole entry): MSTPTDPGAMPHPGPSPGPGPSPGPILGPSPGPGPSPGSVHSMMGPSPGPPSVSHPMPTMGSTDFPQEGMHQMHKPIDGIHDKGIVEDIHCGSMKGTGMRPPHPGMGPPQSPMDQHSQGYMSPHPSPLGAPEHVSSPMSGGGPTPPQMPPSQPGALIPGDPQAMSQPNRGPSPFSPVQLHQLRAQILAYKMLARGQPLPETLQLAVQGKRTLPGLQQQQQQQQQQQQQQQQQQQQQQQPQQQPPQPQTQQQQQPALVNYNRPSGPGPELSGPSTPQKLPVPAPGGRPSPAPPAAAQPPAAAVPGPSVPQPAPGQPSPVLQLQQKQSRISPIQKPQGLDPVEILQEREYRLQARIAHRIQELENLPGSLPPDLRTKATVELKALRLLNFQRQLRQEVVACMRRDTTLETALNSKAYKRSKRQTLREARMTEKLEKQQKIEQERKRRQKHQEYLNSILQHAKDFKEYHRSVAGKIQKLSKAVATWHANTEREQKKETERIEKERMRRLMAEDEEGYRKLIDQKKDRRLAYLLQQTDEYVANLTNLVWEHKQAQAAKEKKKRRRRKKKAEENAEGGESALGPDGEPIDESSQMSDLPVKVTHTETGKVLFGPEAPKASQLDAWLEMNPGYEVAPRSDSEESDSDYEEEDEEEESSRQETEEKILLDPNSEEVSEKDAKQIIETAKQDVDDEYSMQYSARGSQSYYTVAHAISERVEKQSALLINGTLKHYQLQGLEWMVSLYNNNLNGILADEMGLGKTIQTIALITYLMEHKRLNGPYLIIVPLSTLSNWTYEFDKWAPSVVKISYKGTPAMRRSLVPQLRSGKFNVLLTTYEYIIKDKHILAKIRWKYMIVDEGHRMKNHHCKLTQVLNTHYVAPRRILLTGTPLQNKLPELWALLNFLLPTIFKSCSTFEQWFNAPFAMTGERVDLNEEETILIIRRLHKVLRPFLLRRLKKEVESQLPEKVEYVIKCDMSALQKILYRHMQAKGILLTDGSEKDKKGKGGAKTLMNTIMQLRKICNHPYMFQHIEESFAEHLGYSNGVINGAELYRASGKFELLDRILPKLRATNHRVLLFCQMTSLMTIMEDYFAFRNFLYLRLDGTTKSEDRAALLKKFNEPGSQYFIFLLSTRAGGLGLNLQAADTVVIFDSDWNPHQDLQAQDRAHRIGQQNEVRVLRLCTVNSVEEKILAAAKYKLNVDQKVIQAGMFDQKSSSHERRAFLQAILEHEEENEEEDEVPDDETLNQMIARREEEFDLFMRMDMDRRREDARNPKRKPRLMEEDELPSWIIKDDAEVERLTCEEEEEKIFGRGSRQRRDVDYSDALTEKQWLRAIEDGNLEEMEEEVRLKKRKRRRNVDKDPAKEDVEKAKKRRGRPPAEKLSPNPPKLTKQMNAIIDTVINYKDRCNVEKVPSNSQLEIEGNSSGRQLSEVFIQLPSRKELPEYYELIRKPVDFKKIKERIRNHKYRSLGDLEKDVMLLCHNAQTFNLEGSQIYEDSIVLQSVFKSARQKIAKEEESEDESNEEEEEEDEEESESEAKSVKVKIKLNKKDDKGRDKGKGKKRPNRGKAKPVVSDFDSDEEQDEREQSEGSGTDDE

Which results are given for O=C1Nc2cc(C(=O)N3CCc4ccccc4C3)ccc2S/C1=C\c1ccccc1?
AC50 [1]: 3.43 µM (active); AC50 [2]: 55.5 µM (active)

What does the source list for CCCCC(=O)NC(c1ccc(C(C)C)cc1)c1ccc2cccnc2c1O (stereo unspecified)?
EC50 (BJ [3]): 0.534 µM (active); EC50 (BJ [4]): 1.5 µM (inconclusive); EC50 (cells [5]): > 350 µM (not active); AC50 [6]: 0.331 µM (active); EC50 (cells [7]): 2.94 µM (active); IC50 (HEK293 [8]): 20.2 µM (inactive); AC50 [9]: 0.57 µM (active); AC50 [10]: 5.41 µM (active); IC50 (Jurkat): 3.17 µM (active); EC50 [11]: 4.19 µM (active); AC50 [12]: > 70 µM (inactive); EC50 (BJ [13]): 2.13 µM (active); IC50 (HEK293 [14]): 6.67 µM (active); EC50 (BJ [15]): 2.67 µM (active)

What does the source list for CCOC(=O)c1c(-n2cccc2)sc2c1CCCC2=O?
AC50 (HEK293 [16]): 12.3 µM (active); AC50 [17]: 4.1 µM (active)

For COc1ccc(-c2c[nH]nc2-c2ccc(OC)cc2O)cc1, which AC50 [18] is on record?
The AC50 was 9.8 µM (active).

What about the IC50 (Interleukin-8 [19]) of the same molecule?
The IC50 was > 79 µM (inactive).

What about the IC50 (Interleukin-8 [20]) of the same molecule?
Its IC50 is 43.5 µM (inactive).

Which EC50 [21] does the source give for COc1cc2nc(N(C)C)nc(N)c2cc1OC here?
The EC50 was > 60 µM (not active).

And the EC50 [22]?
The EC50 was 37 µM (inactive).

What about the EC50 [23] of the same molecule?
The EC50 was 6.08 µM (active).

And the EC50 [24]?
Its EC50 is > 91.2 µM (inactive).

What about the AC50 [25] of the same molecule?
The AC50 was 12.5 µM (active).

For COc1ccc(OC2C(=O)N(Cc3ccc4c(c3)OCO4)C2c2sccc2C)cc1 (stereo unspecified), which AC50 [1] is on record?
Its AC50 is 29.8 µM (active).

What about the EC50 [26] of the same molecule?
Its EC50 is > 38 µM (not active).

What about the AC50 [2] of the same molecule?
The AC50 was 40.4 µM (active).

And the EC50 [27]?
Its EC50 is > 195 µM (not active).

And the EC50 [28]?
The EC50 was > 160 µM (inactive).
